# Laboratory results published in ChEMBL document CHEMBL3244339, “Antitumor 1-(X-aryl)-3,3-dialkyltriazenes. 1. Quantitative structure-activity relationships vs. L1210 leukemia in mice” (J Med Chem, 1978).
# Activity calls are given as the source filed them. The calls are words filed in the database; no cut-off is given here.
# Assays:
# [1] = system: L1210; assay: Antitumor activity against mouse L1210 cells allografted in mouse assessed as increase of host lifespan; assay type: functional
# [2] = Octanol-saturated water partition coefficient, log D of the compound; assay type: physicochemical
# [3] = system: L1210; assay: Antitumor activity against mouse L1210 cells allografted in mouse assessed as increase of host lifespan of 110 days; assay type: functional, cell-based
# [4] = Aqueous phase distribution coefficient, log P of the compound in 0.01 M NaOH; assay type: physicochemical
# [5] = organism: Mus musculus; assay: Toxicity in mouse L1210 cells allografted mouse assessed as mortality up to 5 days; assay type: organism-based; settings: l1210, 120 h
# [6] = Aqueous phase distribution coefficient, log P of the compound in phosphate buffer at pH 7.4; assay type: physicochemical
# [7] = Distribution coefficient, log P of the compound; assay type: physicochemical; settings: octanol/water
compound,measurement,setting,value
COC(=O)c1c[nH]nc1/N=N/N(C)C,log(1/C),[1],3.49
same,logD,[2],0.04
CN(C)/N=N/c1ccccc1I,Activity,[3],inactive
same,logP,[4],3.5
CN(C)/N=N/c1ccc([N+](=O)[O-])cc1C(=O)O,Activity,[3],inactive
CN(C)/N=N/c1ccccc1CO,Activity,[5],Toxic
same,logP,[4],1.73
CSc1ccccc1/N=N/N(C)C,Activity,[3],inactive
same,logD,[6],3.13
CN(C)/N=N/c1ccccc1C(=O)NCC(N)=O,log(1/C),[1],3.25
same,logP,[7],1.17
CN(C)/N=N/c1ccccc1C(=O)NN,Activity,[5],Toxic
same,logD,[2],1.28
CNC(=O)c1ccccc1/N=N/N(C)C,log(1/C),[1],3.25
same,logP,[7],1.83
CN(C)/N=N/c1ccc(SC#N)cc1C(N)=O,Activity,[3],inactive
CCCCCCCCN(C)/N=N/c1nc[nH]c1C(N)=O,log(1/C),[1],3
same,logP,[7]; read-out: logP,3.2
same,logP,[4],3.22
CCCN(C)/N=N/c1ccccc1C(=O)O,log(1/C),[1],3.74
same,logP,[4],-1.66
CN(C)/N=N/c1ccccc1Cl,log(1/C),[1],3.26
same,logP,[4],2.97
CN(Cc1ccccc1)/N=N/c1nc[nH]c1C(N)=O,log(1/C),[1],3.43
same,logP,[7]; read-out: logP,1.54
CN(C)/N=N/c1ccccc1C#N,Activity,[3],inactive
CN(C)/N=N/c1ccccc1C(N)=O,log(1/C),[1],3.31
same,logP,[7]; read-out: logP,1.73
same,logD,[6],1.73
CN(C)/N=N/c1ccccc1,log(1/C),[1],3.85
same,logP,[7]; read-out: logP,2.59
same,logD,[6],2.59
CCOC(=O)c1[nH]cnc1/N=N/N(C)C,log(1/C),[1],3.98
same,logP,[7],0.44
CN(CCO)/N=N/c1ccccc1,Activity,[5],Toxic
same,logP,[4],1.71
CN(C)/N=N/c1cccc([N+](=O)[O-])c1,Activity,[5],Toxic
same,logD,[2],2.75
CN(C)/N=N/c1ccccc1C(=O)NCC(F)(F)F,Activity,[3],inactive
CN(C)/N=N/c1ccccc1C(F)(F)F,Activity,[3],inactive
COc1ccc(C(N)=O)cc1/N=N/N(C)C,log(1/C),[1],3.95
same,logP,[7],0.44
CN(C)/N=N/c1cc(C(N)=O)cc(C(N)=O)c1,log(1/C),[1],3.27
same,logP,[7],0.22
COc1ccccc1/N=N/N(C)C,Activity,[5],Toxic
same,logD,[6],2.34
CCCCN(C)/N=N/c1ccc(C(N)=O)cc1,log(1/C),[1],3.47
same,logD,[2],2.46
C=CCN(C)/N=N/c1ccc(C(N)=O)cc1,log(1/C),[1],3.38
same,logP,[7],2.09
CCCCCCCCN(C)/N=N/c1ccccc1C(=O)O,log(1/C),[1],3.47
same,logP,[7]; read-out: logP,0.24
same,logP,[4],0.24
CN(C)/N=N/c1ccccc1C(=O)NC#N,logD,[2],0.8
CN(C)/N=N/c1ccc(NC(N)=O)cc1,log(1/C),[1],3.97
same,logP,[7],1.25
CN(C)/N=N/c1ccc(Cl)cc1C(=O)O,Activity,[3],inactive
CN(C)/N=N/c1ccc(C#N)cc1,Activity,[5],Toxic
same,logD,[2],2.39
CC(=O)N(C)/N=N/c1ccc(C)cc1,log(1/C),[1],2.78
same,logP,[7]; read-out: logP,3.13
same,logD,[2],3.13
